Measured values: US9314031B2, “Plant growth regulation” (SYNGENTA PARTICIPATIONS AG, priority 2012, dated 2016)

Tests used:
summer barley (Pasadena) = test: Glasshouse trial, lodging of summer barley after leaf spray; assay type: in vivo; conditions: for % lodging 30 days after spray application: Summer-barley Pasadena, spray at growth stage 30
Excerpt: (§1) A glasshouse trial was setup to compare growth regulation effects of trinexapac-ethyl, seaweed extract, and mixtures of trinexapac-ethyl and seaweed extract at various rates, on both summer barley (Pasadena) and winter rye (Reknit).
(§2) Each treatment was applied as a spray to the leaves of the plant at plant growth stage 30 (start of stem elongation).

Winter-rye Rekrut = test: Glasshouse trial, lodging of winter rye after leaf spray; assay type: in vivo; conditions: for % lodging 30 days after spray application: Winter-rye Rekrut, spray at growth stage 30
Excerpt: as §1, §2

[1] = system: soybeans (Toliman, S40-F8); test: Glasshouse trial, shoot length of soybeans after leaf spray; assay type: in vivo, soybean; conditions: for Shoot length 11 days after spray application: spray at growth stage 12
Excerpt: A glasshouse trial was setup to compare growth regulation effects of trinexapac-ethyl, seaweed extract, and mixtures of trinexapac-ethyl and seaweed extract at various rates, on two varieties of soybeans (Toliman, S40-F8).
Each treatment was applied as a spray to the leaves of the plant at plant growth stage 12 (trifoliolate leaf on the 2nd node unfolded).

[2] = system: soybeans (Toliman, S40-F8); test: Glasshouse trial, Nitrogen Balance Index (Dualex) of soybeans after leaf spray; assay type: in vivo, soybean; conditions: for Nitrogen Balance Index 8 days after spray application: spray at growth stage 12
Excerpt: A glasshouse trial was setup to compare crop enhancement effects of trinexapac-ethyl, seaweed extract, and mixtures of trinexapac-ethyl and seaweed extract at various rates, on two varieties of soybeans (Toliman, S40-F8)
Each treatment was applied as a spray to the leaves of the plant at plant growth stage 12 (trifoliolate leaf on the 2nd node unfolded). Assessments of the Nitrogen Balance Index (NBI) were made 8 days after spray application using a Dualex (Force-A, Orsay Cedex) device; NBI is a measure used to estimate the nitrogen and protein status of a plant.

[3] = treatment 1: Moddus 100 g AI/ha
[4] = treatment 2: Moddus 200 g AI/ha
[5] = Soybean var. S40-F8, treatment 1: Moddus 200 g AI/ha
[6] = Soybean var. S40-F8, treatment 2: Moddus 100 g AI/ha
[7] = Soybean var. S40-F8, treatment 3: Moddus 50 g AI/ha
[8] = Soybean var. Toliman, treatment 1: Moddus 200 g AI/ha
[9] = Soybean var. Toliman, treatment 2: Moddus 100 g AI/ha
[10] = Soybean var. Toliman, treatment 3: Moddus 50 g AI/ha

CCOC(=O)C1CC(=O)C(=C(O)C2CC2)C(=O)C1 (centres unmarked) [TXP, trinexapac-ethyl]
% lodging 30 days after spray application (summer barley (Pasadena); [3]): 10.0% | % lodging 30 days after spray application (summer barley (Pasadena); [4]): 6.7% | Effect on lodging, in words (summer barley (Pasadena); summer barley, summary of Table 3, all rates, compared to untreated control or TXP alone): reduces lodging compared to the control | % lodging 30 days after spray application (Winter-rye Rekrut; [3]): 6.7% | % lodging 30 days after spray application (Winter-rye Rekrut; [4]): 0.0% | Effect on lodging, in words (Winter-rye Rekrut; winter rye, summary of Table 3, all rates, compared to untreated control or TXP alone): reduces lodging compared to the control | Shoot length 11 days after spray application [1, 5]: 34.5 cm | Shoot length 11 days after spray application [1, 6]: 39.5 cm | Shoot length 11 days after spray application [1, 7]: 45.8 cm | Shoot length 11 days after spray application [1, 8]: 54.8 cm | Shoot length 11 days after spray application [1, 9]: 59.3 cm | Shoot length 11 days after spray application [1, 10]: 61.3 cm | Effect on plant length, in words ([1]; both soybean varieties, summary of Table 5, all rates, compared to untreated control or TXP alone): reduces plant length compared to the control | Nitrogen Balance Index 8 days after spray application [2, 5]: 125.5 | Nitrogen Balance Index 8 days after spray application [2, 6]: 97.9 | Nitrogen Balance Index 8 days after spray application [2, 7]: 77.1 | Nitrogen Balance Index 8 days after spray application [2, 8]: 64.2 | Nitrogen Balance Index 8 days after spray application [2, 9]: 48.7 | Nitrogen Balance Index 8 days after spray application [2, 10]: 47.9 | Effect on NBI, in words ([2]; both soybean varieties, summary of Table 7, compared to untreated control or single components): increases NBI at high rate
